SMILES strings stand for the structures. Structures can show the parent of a compound that is named as a salt. Where two headings read alike, the source gives them in different places.

Holding throughout (assay): MIC by broth microdilution (CLSI)
What all share (format): cell-based
(In general: In broth dilution the organism is exposed to a series of concentrations in liquid medium.)

Assay [1] deals with K. pneumoniae HAV#402, FQ-R. The conditions noted are these: Klebsiella pneumoniae, read-out: MIC K. pneumoniae HAV#402, FQ-R. Summed up:
(§1)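 MIC read as the lowest compound level with no visible growth at 24 h (μg/mL). CLSI microdilution; CaMHB (Chelex 100-treated for P. aeruginosa); 5×10^5 CFU/mL; range 64-0.06 μg/mL; DMSO 2.5% final.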

Assay [2] relates to E. coli HAV#040, LptD. The conditions noted are these: Escherichia coli, 24 h, read-out: MIC E. coli HAV#040, LptD. Summed up:
as §1

Assay [3] deals with E. faecalis ATCC 29212 (HAV#005). The conditions noted are these: Enterococcus faecalis, ATCC29212, 24 h, read-out: MIC E. faecalis ATCC 29212. Summed up:
as §1

The subject of assay [4] is S. aureus HAV#216, cfr. Particulars: Staphylococcus aureus, read-out: MIC S. aureus HAV#216, cfr. In short, it runs like this:
as §1

The test system of assay [5] is K. oxytoca HAV#450; Clinical. The conditions noted are these: Klebsiella oxytoca, read-out: MIC K. oxytoca HAV#450. In short, it runs like this:
as §1

For assay [6], the system named is E. coli HAV#038, ΔTolC. The conditions noted are these: Escherichia coli, 24 h, read-out: MIC E. coli HAV#038, ΔTolC. Summed up:
as §1

Assay [7] concerns S. pyogenes HAV#033, c-ermB. The conditions noted are these: Streptococcus pyogenes, read-out: MIC S. pyogenes HAV#033, c-ermB. In short, it runs like this:
as §1

Assay [8] concerns S. aureus HAV#031, c-ermA. The conditions noted are these: Staphylococcus aureus, read-out: MIC S. aureus HAV#031, c-ermA. In short, it runs like this: as §1
Assay [9] has as its system E. coli ATCC 25922 (HAV#006). The conditions noted are these: Escherichia coli, ATCC25922, 24 h, read-out: MIC E. coli ATCC 25922. In short, it runs like this:
as §1

The subject of assay [10] is E. faecium HAV#318, VRE; clinical. Particulars: Enterococcus faecium, read-out: MIC E. faecium HAV#318, VRE. In short, it runs like this: as §1
In assay [11] the test system is A. baumannii ATCC 19606 (HAV#010). The conditions noted are these: Acinetobacter baumannii, ATCC19606, 24 h, read-out: MIC A. baumannii ATCC 19606. In short, it runs like this:
as §1

Assay [12] deals with S. aureus ATCC 29213 (HAV#001). The conditions noted are these: Staphylococcus aureus, ATCC29213, 24 h, read-out: MIC S. aureus ATCC 29213. In short, it runs like this:
as §1

In assay [13] the test system is S. aureus MMX 3035. Particulars: Staphylococcus aureus, MMX3035, 24 h, read-out: MIC S. aureus MMX 3035. In short, it runs like this:
as §1

Assay [14] has as its system S. pneumoniae c-ermB. Particulars: Streptococcus pneumoniae, 24 h, read-out: MIC S. pneumoniae c-ermB. In short, it runs like this: as §1
The subject of assay [15] is K. pneumoniae JMI-991193. Particulars: Klebsiella pneumoniae, JMI991193, 24 h, read-out: MIC K. pneumoniae JMI-991193. Summed up: as §1
The subject of assay [16] is E. faecium JMI-990536. Particulars: Enterococcus faecium, JMI990536, 24 h, read-out: MIC E. faecium JMI-990536. In short, it runs like this: as §1
The subject of assay [17] is S. aureus Clinical (cfr). Particulars: Staphylococcus aureus, 24 h, read-out: MIC S. aureus Clinical (cfr). In short, it runs like this: as §1
In assay [18] the test system is E. coli ΔtolC. Particulars: Escherichia coli, 24 h, read-out: MIC E. coli ΔtolC, ΔtolC; CaMHB, 24 h incubation. Summed up: as §1
Assay [19] relates to E. coli lptD mutant. The conditions noted are these: Escherichia coli, 24 h, read-out: MIC E. coli lptD mutant, lptD mutant / ΔlptD mutant; CaMHB, 24 h incubation. In short, it runs like this:
as §1

[20] abbreviates: HAV#005, ATCC 29212, CaMHB, 24 h incubation.
[21] abbreviates: HAV#006, ATCC 25922, CaMHB, 24 h incubation.
[22] abbreviates: HAV#010, ATCC 19606, CaMHB, 24 h incubation.
[23] abbreviates: HAV#001, ATCC 29213, CaMHB, 24 h incubation.

Turning to `CC(C)C[C@@H]1CCO[C@@H]2[C@H](CN[C@@H]2C(=O)N[C@H]2C3OC(SCC/C=C\[C@H]2C)C(O)C(O)C3O)C1` (single isomer, unassigned) [FSA1507066, formate], the MIC in [1] (24 h) is 16 µg/mL; in assay [2], 0.25 µg/mL; in [3] it was at most 0.06 µg/mL; in assay [4] (24 h), 0.5 µg/mL; in [5] (24 h), 4 µg/mL; in assay [6], 0.125 µg/mL. In addition, the MIC in [7] (24 h) is 0.125 µg/mL; in [8] (24 h), 0.5 µg/mL; in [9] it was 4 µg/mL; in assay [10] (24 h), 0.25 µg/mL; in [11], 2 µg/mL; in assay [12], at most 0.06 µg/mL.
Take `CC(C)C[C@@H]1CCO[C@@H]2[C@H](CN[C@@H]2C(=O)N[C@H]2C3OC(SCC/C=C/[C@@H]2C)C(O)C(O)C3O)C1` (single isomer, unassigned) [FSA1507068, formate salt]: the MIC in [1] (FQ-R, CaMHB, 24 h incubation) is 8 µg/mL; in [2] it was 0.5 µg/mL; in assay [3] (setting [20]), 0.125 µg/mL; in assay [4] (cfr, CaMHB, 24 h incubation) it was 2 µg/mL; in assay [5] (CaMHB, 24 h incubation), 8 µg/mL; in [6], 0.5 µg/mL. In addition, the MIC in assay [7] (c-ermB, CaMHB, 24 h incubation) was 0.25 µg/mL; in [8] (c-ermA, CaMHB, 24 h incubation) it was 0.5 µg/mL; in assay [9] (setting [21]), 4 µg/mL; in [10] (CaMHB, 24 h incubation) it was 0.5 µg/mL; in assay [11] (setting [22]), 4 µg/mL; in assay [12] (setting [23]) it was at most 0.06 µg/mL.
For the compound `CC(C)C[C@@H]1CCO[C@@H]2[C@@H](C1)CN(C)[C@@H]2C(=O)N[C@H]1C2OC(SCC/C=C\[C@H]1C)C(O)C(O)C2O` (single isomer, unassigned) [FSA1508001, formate], the MIC in assay [1] (24 h) was determined as 64 µg/mL; in assay [2] it was 0.25 µg/mL; in assay [3], 0.125 µg/mL; in assay [4] (24 h), 1 µg/mL; in assay [5] (24 h), 16 µg/mL; in assay [6] it was 0.25 µg/mL. Also, the MIC in assay [7] (24 h) was 0.25 µg/mL; in assay [8] (24 h) it was 0.5 µg/mL; in assay [9], 8 µg/mL; in [10] (24 h), 0.25 µg/mL; in [11], 2 µg/mL; in assay [12], 0.25 µg/mL.
Turning to `CC(C)C[C@@H]1CCO[C@@H]2[C@H](CN[C@@H]2C(=O)N[C@@H]2C/C=C\CCS[C@H]3O[C@H]2[C@H](O)[C@H](O)[C@H]3O)C1` [FSA1507013, (4S,5aS,8S,8aR)-4-isobutyl-8-(((1R,8R,9R,10R,11S,12R,Z)-10,11,12-trihydroxy-13-oxa-2-thiabicyclo[7.3.1]tridec-5-en-8-yl)carbamoyl) octahydro-2H-oxepino[2,3-c]pyrrol-7-ium formate], the MIC in assay [1] (24 h) was 8 µg/mL; in [2] it was 0.5 µg/mL; in assay [3] it was 0.125 µg/mL; in [5] (24 h), 2 µg/mL; in assay [6], 0.125 µg/mL; in assay [7] (24 h), 0.5 µg/mL. Besides, the MIC in assay [8] (24 h) was determined as 4 µg/mL; in assay [9] it was 2 µg/mL; in assay [11], 2 µg/mL; in assay [12], 0.125 µg/mL.
In the case of `CC(C)C[C@@H]1CCO[C@@H]2[C@@H](C1)CN(C)[C@@H]2C(=O)N[C@@H]1C/C=C\CCS[C@H]2O[C@H]1[C@H](O)[C@H](O)[C@H]2O` [FSA1508003, (4S,5aS,8S,8aR)-4-isobutyl-7-methyl-8-(((1R,8R,9R,10R,11S,12R,Z)-10,11,12-trihydroxy-13-oxa-2-thiabicyclo[7.3.1]tridec-5-en-8-yl)carbamoyl) octahydro-2H-oxepino[2,3-c]pyrrol-7-ium formate], the MIC in assay [1] (24 h) was 16 µg/mL; in [2] it was 0.25 µg/mL; in assay [3], 0.125 µg/mL; in assay [4] (24 h), 8 µg/mL; in [5] (24 h) it was 8 µg/mL; in assay [6], 0.25 µg/mL. Also, the MIC in [7] (24 h) amounted to 2 µg/mL; in assay [8] (24 h), 2 µg/mL; in assay [9], 4 µg/mL; in [10] (24 h), 1 µg/mL; in [11] it was 2 µg/mL; in [12], 0.125 µg/mL.
In the case of `CC(C)C[C@@H]1CCO[C@@H]2[C@H](CN[C@@H]2C(=O)N[C@@H]2C/C=C\C[C@@H](CO)S[C@H]3O[C@H]2[C@H](O)[C@H](O)[C@H]3O)C1` [FSA1606034, (4S,5aS,8S,8aR)-4-isobutyl-N-((1R,3S,8R,9R,10R,11S,12R,Z)-10,11,12-trihydroxy-3-(hydroxymethyl)-13-oxa-2-thiabicyclo[7.3.1]tridec-5-en-8-yl) octahydro-2H-oxepino[2,3-c]pyrrole-8-carboxamide hydrochloride salt], the MIC was 64 µg/mL in [13] (MMX 3035, CaMHB, 24 h incubation); 2 µg/mL in [3] (setting [20]); 16 µg/mL in assay [14]; above 64 µg/mL in assay [15] (JMI-991193, CaMHB, 24 h incubation); 64 µg/mL in assay [9] (setting [21]); above 64 µg/mL in [16] (JMI-990536, CaMHB, 24 h incubation). Besides, the MIC in assay [17] (Clinical (cfr), CaMHB, 24 h incubation) is above 64 µg/mL; in [18] it was 2 µg/mL; in [11] (setting [22]), above 64 µg/mL; in [12] (setting [23]), 1 µg/mL; in [19], 8 µg/mL.
With `CC(C)C[C@@H]1CCO[C@@H]2[C@H](CN[C@@H]2C(=O)N[C@H]2[C@H]3O[C@H](S[C@H](c4cn(-c5cccc(Cl)c5)nn4)C/C=C\[C@H]2C)[C@H](O)[C@@H](O)[C@H]3O)C1` [FSA1609015, (4S,5aS,8S,8aR)—N-((1R,3S,7R,8R,9R,10R,11S,12R,Z)-3-(1-(3-chlorophenyl)-1H-1,2,3-triazol-4-yl)-10,11,12-trihydroxy-7-methyl-13-oxa-2-thiabicyclo[7.3.1]tridec-5-en-8-yl)-4-isobutyloctahydro-2H-oxepino[2,3-c]pyrrole-8-carboxamide formate salt], the MIC in assay [13] turned out to be 2 µg/mL; in [3], 2 µg/mL; in assay [14], 0.25 µg/mL; in assay [15] it was 32 µg/mL; in [9] it was 8 µg/mL; in assay [16], 0.5 µg/mL. In addition, the MIC in assay [17] was 2 µg/mL; in assay [18], 2 µg/mL; in assay [11] it was 8 µg/mL; in assay [12], 1 µg/mL; in assay [19] it was 2 µg/mL.

The values above are taken from patent US20250270246A1, “LINCOSAMIDES AND USES THEREOF” (President and Fellows of Harvard College, priority 2022, published 2025).
